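Grown in 96-well plates, cells were treated for 48 hours with each compound at five concentrations. Insufficient inhibition: endpoint recorded as highest concentration tested. GI50 is the concentration that inhibits growth by half.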 Active and inactive are the calls of the source. Rule as the data show it: active = GI50 up to about 1.1 µM and inactive = higher.
What was measured:
Assay in all cases: NCI anticancer screen, dose series, 48 h
SK-OV-3 = system: SK-OV-3
HOP-62 = system: HOP-62
NCI-H23 = system: NCI-H23
RPMI-8226 = system: RPMI-8226
HOP-92 = system: HOP-92
DU-145 = system: DU-145
SNB-75 = system: SNB-75
NCI-H460 = system: NCI-H460
MOLT-4 = system: MOLT-4
MDA-N = system: MDA-N
NCI-H226 = system: NCI-H226
COLO 205 = system: COLO 205
786-0 = system: 786-0
SW-620 = system: SW-620
SF-295 = system: SF-295
SK-MEL-5 = system: SK-MEL-5
NCI-H522 = system: NCI-H522
UACC-62 = system: UACC-62
OVCAR-4 = system: OVCAR-4
HCC 2998 = system: HCC 2998

| Compound | GI50 (SK-OV-3) | GI50 (HOP-62) | GI50 (NCI-H23) | GI50 (RPMI-8226) | GI50 (HOP-92) | GI50 (DU-145) | GI50 (SNB-75) | GI50 (NCI-H460) | GI50 (MOLT-4) | GI50 (MDA-N) | GI50 (NCI-H226) | GI50 (COLO 205) | GI50 (786-0) | GI50 (SW-620) | GI50 (SF-295) | GI50 (SK-MEL-5) | GI50 (NCI-H522) | GI50 (UACC-62) | GI50 (OVCAR-4) | GI50 (HCC 2998) |
| --- | --- | --- | --- | --- | --- | --- | --- | --- | --- | --- | --- | --- | --- | --- | --- | --- | --- | --- | --- | --- |
| COC(=O)C(Cc1c(C2Nc3ccccc3C2CC(NC(C)=O)C(=O)OC)[nH]c2ccccc12)NC(C)=O (stereo not given) | > 100 µM (inactive) | > 100 µM (inactive) | > 100 µM (inactive) | > 100 µM (inactive) | > 100 µM (inactive) | > 100 µM (inactive) | > 100 µM (inactive) | > 100 µM (inactive) | > 100 µM (inactive) | > 100 µM (inactive) | > 100 µM (inactive) | > 100 µM (inactive) | > 100 µM (inactive) | > 100 µM (inactive) | > 100 µM (inactive) | > 100 µM (inactive) | > 100 µM (inactive) | > 100 µM (inactive) | – | – |
| CCN1C(=O)/C(=C/Nc2ccccc2)S/C1=N/Nc1nc(-c2ccc(O)c(O)c2)cs1 | 33.5 µM (inactive) | 6.22 µM (inactive) | 7.18 µM (inactive) | 12.3 µM (inactive) | 13.2 µM (inactive) | 5.64 µM (inactive) | 3.05 µM (inactive) | 35.2 µM (inactive) | 5.53 µM (inactive) | 1.71 µM (inactive) | 51.5 µM (inactive) | 35.5 µM (inactive) | 23 µM (inactive) | 8.47 µM (inactive) | 4.46 µM (inactive) | 3.96 µM (inactive) | 3.66 µM (inactive) | 6.4 µM (inactive) | 40.8 µM (inactive) | – |
| Cn1c(=O)c2[nH]c(C3CC(=O)CC(c4nc5c([nH]4)c(=O)n(C)c(=O)n5C)N3)nc2n(C)c1=O (stereo not given) | > 100 µM (inactive) | > 100 µM (inactive) | > 100 µM (inactive) | > 100 µM (inactive) | – | > 100 µM (inactive) | > 100 µM (inactive) | > 100 µM (inactive) | 71.3 µM (inactive) | > 100 µM (inactive) | > 100 µM (inactive) | 97.7 µM (inactive) | > 100 µM (inactive) | > 100 µM (inactive) | > 100 µM (inactive) | > 100 µM (inactive) | > 100 µM (inactive) | > 100 µM (inactive) | > 100 µM (inactive) | – |
| O=CNC(Cc1c[nH]cn1)C(=O)O (stereo not given) | > 100 µM (inactive) | > 100 µM (inactive) | > 100 µM (inactive) | > 100 µM (inactive) | > 100 µM (inactive) | > 100 µM (inactive) | > 100 µM (inactive) | > 100 µM (inactive) | – | > 100 µM (inactive) | > 100 µM (inactive) | > 100 µM (inactive) | > 100 µM (inactive) | > 100 µM (inactive) | > 100 µM (inactive) | > 100 µM (inactive) | > 100 µM (inactive) | > 100 µM (inactive) | > 100 µM (inactive) | – |
| CSc1cc(Cl)c(C)cc1S(=O)(=O)NC(=O)NNc1ccc(F)cc1 | > 100 µM (inactive) | > 100 µM (inactive) | – | – | – | > 100 µM (inactive) | > 100 µM (inactive) | > 100 µM (inactive) | > 100 µM (inactive) | > 100 µM (inactive) | > 100 µM (inactive) | > 100 µM (inactive) | > 100 µM (inactive) | > 100 µM (inactive) | > 100 µM (inactive) | > 100 µM (inactive) | > 100 µM (inactive) | – | > 100 µM (inactive) | 30 µM (inactive) |
| CC1NC(=O)C2Cc3ccc(O)c(c3)Oc3ccc(cc3)C(O)C(C(=O)N2C)N(C)C(=O)C(C)NC(=O)C(Cc2ccc(O)cc2)N(C)C(=O)C(C)NC1=O (stereo not given) | – | 34.7 µM (inactive) | 29.2 µM (inactive) | 12 µM (inactive) | 15.8 µM (inactive) | 32.4 µM (inactive) | 3.67 µM (inactive) | 31.3 µM (inactive) | 19.4 µM (inactive) | 13.1 µM (inactive) | – | 79.6 µM (inactive) | 38 µM (inactive) | 23.4 µM (inactive) | > 100 µM (inactive) | 31.6 µM (inactive) | 9.44 µM (inactive) | 19.5 µM (inactive) | 35.1 µM (inactive) | 22.2 µM (inactive) |
| CC(=O)c1c(=O)n(-c2ccc(C)cc2)c(O)c2c(N)n[nH]c12 | > 100 µM (inactive) | – | > 100 µM (inactive) | > 100 µM (inactive) | – | > 100 µM (inactive) | > 100 µM (inactive) | > 100 µM (inactive) | > 100 µM (inactive) | > 100 µM (inactive) | > 100 µM (inactive) | > 100 µM (inactive) | > 100 µM (inactive) | > 100 µM (inactive) | – | > 100 µM (inactive) | > 100 µM (inactive) | > 100 µM (inactive) | > 100 µM (inactive) | > 100 µM (inactive) |
| CCOC(=O)CC(=O)Nc1cccc2nc[nH]c12 | > 100 µM (inactive) | > 100 µM (inactive) | > 100 µM (inactive) | > 100 µM (inactive) | > 100 µM (inactive) | > 100 µM (inactive) | 0.294 µM (active) | > 100 µM (inactive) | > 100 µM (inactive) | > 100 µM (inactive) | > 100 µM (inactive) | > 100 µM (inactive) | > 100 µM (inactive) | > 100 µM (inactive) | > 100 µM (inactive) | > 100 µM (inactive) | – | > 100 µM (inactive) | > 100 µM (inactive) | – |
| CCc1ccccc1/N=N/C(=O)NNc1ccccc1CC | – | 15.8 µM (inactive) | 19.9 µM (inactive) | 22.2 µM (inactive) | – | 14.9 µM (inactive) | 19.4 µM (inactive) | 18 µM (inactive) | 19.4 µM (inactive) | 18.3 µM (inactive) | 17.5 µM (inactive) | – | 17.6 µM (inactive) | 17.1 µM (inactive) | – | 15 µM (inactive) | 19.7 µM (inactive) | 10.3 µM (inactive) | 24 µM (inactive) | 15.7 µM (inactive) |
| CN(NC(=O)/C(=C/C=C/c1ccccc1)NC(=O)c1ccccc1)C1=C(Cl)C(=O)[N+](c2ccccc2)=CC1 | > 100 µM (inactive) | 21.7 µM (inactive) | 35.4 µM (inactive) | 23.9 µM (inactive) | 20.5 µM (inactive) | 33 µM (inactive) | 21.6 µM (inactive) | 37.6 µM (inactive) | 24.3 µM (inactive) | 18.2 µM (inactive) | 17.9 µM (inactive) | 17.5 µM (inactive) | 19.4 µM (inactive) | 16.4 µM (inactive) | 35 µM (inactive) | 14.4 µM (inactive) | 23.3 µM (inactive) | – | 22.4 µM (inactive) | – |
| COc1ccc(-c2cc(-c3ccccc3)nc(N)c2-c2ccc3ccccc3c2)cc1 | 3.84 µM (inactive) | 2.3 µM (inactive) | 1.86 µM (inactive) | 2.13 µM (inactive) | 1.5 µM (inactive) | – | 2.3 µM (inactive) | 1.52 µM (inactive) | 2.37 µM (inactive) | 1.6 µM (inactive) | 1.5 µM (inactive) | 1.68 µM (inactive) | 1.73 µM (inactive) | 1.75 µM (inactive) | 1.87 µM (inactive) | 1.77 µM (inactive) | < 0.01 µM (active) | 1.58 µM (inactive) | 0.979 µM (active) | 1.83 µM (inactive) |

Source: ChEMBL document CHEMBL1201862, “PubChem BioAssay data set” (2004)
